IC50 data for 3 compounds are collected here from ChEMBL document CHEMBL4334516, “Kinase Chemodiversity from the Arctic: The Breitfussins” (J Med Chem, 2019).

Test [1] deals with Cyclin-dependent kinase 9 (Homo sapiens, UniProt P50750). Nature of the test: Inhibition of CDK9 (unknown origin).
In test [2] the test system is MCF7. As to the kind of experiment: Cytotoxicity in human MCF7 cells assessed as reduction in cell viability incubated for 72 hrs by MTS assay. It counts as functional, cell-based. The settings on record: MCF7, 72 h.
In test [3] the test system is MDA-MB-468. As to the kind of experiment: Cytotoxicity in human MDA-MB-468 cells assessed as reduction in cell viability incubated for 72 hrs by MTS assay. Format: functional, cell-based. Particulars: MDA-MB-468, 72 h.
For test [4], the system named is SK-BR-3. Nature of the test: Cytotoxicity in human SK-BR-3 cells assessed as reduction in cell viability incubated for 72 hrs by MTS assay. The settings on record: SK-BR-3, 72 h. Format: functional, cell-based.
Test [5] has as its system HT-29. Nature of the test: Cytotoxicity in human HT-29 cells assessed as reduction in cell viability incubated for 72 hrs by MTS assay. It counts as functional, cell-based. Particulars: HT-29, 72 h.
Test [6] deals with MOLT-4. Nature of the test: Cytotoxicity in human MOLT4 cells assessed as reduction in cell viability incubated for 72 hrs by MTS assay. Format: functional, cell-based. Particulars: MOLT-4, 72 h.
Test [7] deals with MV4-11. Nature of the test: Cytotoxicity in human MV4-11 cells assessed as reduction in cell viability incubated for 72 hrs by MTS assay. The settings on record: MV4-11, 72 h. It counts as functional, cell-based.
In test [8] the test system is A2058. Nature of the test: Cytotoxicity in human A2058 cells assessed as reduction in cell viability incubated for 72 hrs by MTS assay. Format: functional, cell-based. Particulars: A2058, 72 h.
For test [9], the system named is MRC5. As to the kind of experiment: Cytotoxicity in human MRC5 cells assessed as reduction in cell viability incubated for 72 hrs by MTS assay. It counts as cell-based. The settings on record: MRC5, 72 h.
Test [10] concerns the target Dual specificity tyrosine-phosphorylation-regulated kinase 1A (Homo sapiens, UniProt Q13627). As to the kind of experiment: Inhibition of DYRK1A (unknown origin) by [33P]-ATP filter binding kinase assay.
Test [11] has as its target T1, Mitogen-activated protein kinase 15 (Homo sapiens, UniProt Q8TD08).
T1 sequence (Q8TD08 whole entry): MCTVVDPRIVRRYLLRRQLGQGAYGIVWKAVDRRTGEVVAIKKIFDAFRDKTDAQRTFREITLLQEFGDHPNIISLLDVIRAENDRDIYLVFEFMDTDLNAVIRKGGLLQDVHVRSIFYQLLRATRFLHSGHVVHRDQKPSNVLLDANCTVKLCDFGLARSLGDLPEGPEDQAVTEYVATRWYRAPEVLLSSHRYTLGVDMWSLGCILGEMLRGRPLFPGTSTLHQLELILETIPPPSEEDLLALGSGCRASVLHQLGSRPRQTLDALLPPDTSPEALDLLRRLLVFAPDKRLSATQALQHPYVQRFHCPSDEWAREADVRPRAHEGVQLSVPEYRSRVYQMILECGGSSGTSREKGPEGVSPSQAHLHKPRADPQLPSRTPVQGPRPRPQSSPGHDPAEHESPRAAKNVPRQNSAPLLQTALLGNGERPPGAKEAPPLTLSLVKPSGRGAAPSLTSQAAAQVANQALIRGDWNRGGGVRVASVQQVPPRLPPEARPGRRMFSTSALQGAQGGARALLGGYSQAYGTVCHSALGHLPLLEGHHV
Nature of the test: Inhibition of ERK8 (unknown origin) by [33P]-ATP filter binding kinase assay.

The target in test [12] is Serine/threonine-protein kinase pim-1 (Homo sapiens, UniProt P11309). As to the kind of experiment: Inhibition of PIM1 (unknown origin) by [33P]-ATP filter binding kinase assay.
Test [13] concerns the target Serine/threonine-protein kinase pim-2 (Homo sapiens, UniProt Q9P1W9). As to the kind of experiment: Inhibition of PIM2 (unknown origin) by [33P]-ATP filter binding kinase assay.
Test [14] concerns the target Serine/threonine-protein kinase pim-3 (Homo sapiens, UniProt Q86V86). Nature of the test: Inhibition of PIM3 (unknown origin) by [33P]-ATP filter binding kinase assay.
In test [15] the target is Serine/threonine-protein kinase SIK3 (Homo sapiens, UniProt Q9Y2K2). As to the kind of experiment: Inhibition of SIK3 (unknown origin) by [33P]-ATP filter binding kinase assay.
The target in test [16] is T2, Mitogen-activated protein kinase kinase kinase kinase 2 (Homo sapiens, UniProt Q12851).
T2 sequence (Q12851 whole entry): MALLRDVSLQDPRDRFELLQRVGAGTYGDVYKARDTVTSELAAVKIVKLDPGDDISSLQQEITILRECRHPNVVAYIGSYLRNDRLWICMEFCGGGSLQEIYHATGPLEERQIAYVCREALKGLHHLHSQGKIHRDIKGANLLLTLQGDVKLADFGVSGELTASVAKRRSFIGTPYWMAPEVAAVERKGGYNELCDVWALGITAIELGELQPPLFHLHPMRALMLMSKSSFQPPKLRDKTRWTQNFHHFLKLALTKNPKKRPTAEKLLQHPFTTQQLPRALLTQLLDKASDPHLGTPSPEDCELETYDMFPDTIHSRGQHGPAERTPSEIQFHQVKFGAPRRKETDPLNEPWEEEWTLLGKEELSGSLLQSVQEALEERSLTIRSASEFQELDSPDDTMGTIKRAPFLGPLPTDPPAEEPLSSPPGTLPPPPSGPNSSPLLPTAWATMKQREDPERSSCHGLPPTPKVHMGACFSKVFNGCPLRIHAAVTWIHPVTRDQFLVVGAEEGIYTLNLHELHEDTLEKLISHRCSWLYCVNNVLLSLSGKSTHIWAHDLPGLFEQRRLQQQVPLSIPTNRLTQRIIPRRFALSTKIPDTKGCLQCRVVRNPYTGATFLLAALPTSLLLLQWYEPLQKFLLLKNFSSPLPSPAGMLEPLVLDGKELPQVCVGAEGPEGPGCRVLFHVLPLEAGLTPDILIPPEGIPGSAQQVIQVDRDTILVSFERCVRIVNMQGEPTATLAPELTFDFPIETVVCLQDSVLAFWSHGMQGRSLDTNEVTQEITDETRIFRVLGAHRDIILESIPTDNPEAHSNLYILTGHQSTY
Nature of the test: Inhibition of GCK (unknown origin) by [33P]-ATP filter binding kinase assay.

For test [17], the target named is T3, Mitogen-activated protein kinase kinase kinase 7 (Homo sapiens, UniProt O43318).
T3 sequence (O43318 whole entry): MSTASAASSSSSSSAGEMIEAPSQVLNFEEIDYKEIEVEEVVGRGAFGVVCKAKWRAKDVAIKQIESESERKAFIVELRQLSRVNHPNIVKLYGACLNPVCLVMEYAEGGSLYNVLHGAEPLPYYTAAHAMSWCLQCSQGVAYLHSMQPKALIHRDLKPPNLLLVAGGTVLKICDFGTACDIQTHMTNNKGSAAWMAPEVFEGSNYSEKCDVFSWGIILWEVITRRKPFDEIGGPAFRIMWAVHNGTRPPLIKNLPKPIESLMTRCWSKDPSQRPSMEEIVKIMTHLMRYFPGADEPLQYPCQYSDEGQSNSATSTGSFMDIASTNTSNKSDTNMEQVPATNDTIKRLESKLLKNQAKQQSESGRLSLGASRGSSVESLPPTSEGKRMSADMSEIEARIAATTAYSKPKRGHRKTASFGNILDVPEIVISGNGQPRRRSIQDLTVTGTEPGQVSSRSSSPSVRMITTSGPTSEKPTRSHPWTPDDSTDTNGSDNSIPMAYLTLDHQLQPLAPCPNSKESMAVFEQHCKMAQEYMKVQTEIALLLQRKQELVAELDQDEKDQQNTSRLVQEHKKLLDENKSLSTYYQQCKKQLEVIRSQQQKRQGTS
As to the kind of experiment: Inhibition of TAK1 (unknown origin) by [33P]-ATP filter binding kinase assay.

The target of test [18] is Mitogen-activated protein kinase kinase kinase 9 (Homo sapiens, UniProt P80192). As to the kind of experiment: Inhibition of MLK1 (unknown origin) by [33P]-ATP filter binding kinase assay.
The target of test [19] is Mitogen-activated protein kinase kinase kinase 11 (Homo sapiens, UniProt Q16584). Nature of the test: Inhibition of MLK3 (unknown origin) by [33P]-ATP filter binding kinase assay.
In test [20] the target is Receptor-interacting serine/threonine-protein kinase 2 (Homo sapiens, UniProt O43353). As to the kind of experiment: Inhibition of RIPK2 (unknown origin) by [33P]-ATP filter binding kinase assay.
For test [21], the target named is T4, Aurora kinase A (Homo sapiens, UniProt O14965).
T4 sequence (O14965 whole entry): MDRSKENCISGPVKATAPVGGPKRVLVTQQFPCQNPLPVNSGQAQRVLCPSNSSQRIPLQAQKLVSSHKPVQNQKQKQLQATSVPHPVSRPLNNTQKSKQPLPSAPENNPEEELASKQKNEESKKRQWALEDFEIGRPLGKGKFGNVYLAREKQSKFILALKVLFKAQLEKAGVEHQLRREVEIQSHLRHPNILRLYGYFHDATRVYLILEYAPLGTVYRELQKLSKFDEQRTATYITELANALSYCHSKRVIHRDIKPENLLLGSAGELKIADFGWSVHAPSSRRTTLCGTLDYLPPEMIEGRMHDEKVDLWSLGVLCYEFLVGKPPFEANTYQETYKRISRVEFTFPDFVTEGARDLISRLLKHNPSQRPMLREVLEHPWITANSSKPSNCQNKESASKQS
As to the kind of experiment: Inhibition of Aurora A (unknown origin) by [33P]-ATP filter binding kinase assay.

Test [22] concerns the target Aurora kinase B (Homo sapiens, UniProt Q96GD4). As to the kind of experiment: Inhibition of Aurora B (unknown origin) by [33P]-ATP filter binding kinase assay.

A value given as a limit tells only on which side of the number the result lay.

Sequence of Mitogen-activated protein kinase kinase kinase 9 (P80192 whole entry): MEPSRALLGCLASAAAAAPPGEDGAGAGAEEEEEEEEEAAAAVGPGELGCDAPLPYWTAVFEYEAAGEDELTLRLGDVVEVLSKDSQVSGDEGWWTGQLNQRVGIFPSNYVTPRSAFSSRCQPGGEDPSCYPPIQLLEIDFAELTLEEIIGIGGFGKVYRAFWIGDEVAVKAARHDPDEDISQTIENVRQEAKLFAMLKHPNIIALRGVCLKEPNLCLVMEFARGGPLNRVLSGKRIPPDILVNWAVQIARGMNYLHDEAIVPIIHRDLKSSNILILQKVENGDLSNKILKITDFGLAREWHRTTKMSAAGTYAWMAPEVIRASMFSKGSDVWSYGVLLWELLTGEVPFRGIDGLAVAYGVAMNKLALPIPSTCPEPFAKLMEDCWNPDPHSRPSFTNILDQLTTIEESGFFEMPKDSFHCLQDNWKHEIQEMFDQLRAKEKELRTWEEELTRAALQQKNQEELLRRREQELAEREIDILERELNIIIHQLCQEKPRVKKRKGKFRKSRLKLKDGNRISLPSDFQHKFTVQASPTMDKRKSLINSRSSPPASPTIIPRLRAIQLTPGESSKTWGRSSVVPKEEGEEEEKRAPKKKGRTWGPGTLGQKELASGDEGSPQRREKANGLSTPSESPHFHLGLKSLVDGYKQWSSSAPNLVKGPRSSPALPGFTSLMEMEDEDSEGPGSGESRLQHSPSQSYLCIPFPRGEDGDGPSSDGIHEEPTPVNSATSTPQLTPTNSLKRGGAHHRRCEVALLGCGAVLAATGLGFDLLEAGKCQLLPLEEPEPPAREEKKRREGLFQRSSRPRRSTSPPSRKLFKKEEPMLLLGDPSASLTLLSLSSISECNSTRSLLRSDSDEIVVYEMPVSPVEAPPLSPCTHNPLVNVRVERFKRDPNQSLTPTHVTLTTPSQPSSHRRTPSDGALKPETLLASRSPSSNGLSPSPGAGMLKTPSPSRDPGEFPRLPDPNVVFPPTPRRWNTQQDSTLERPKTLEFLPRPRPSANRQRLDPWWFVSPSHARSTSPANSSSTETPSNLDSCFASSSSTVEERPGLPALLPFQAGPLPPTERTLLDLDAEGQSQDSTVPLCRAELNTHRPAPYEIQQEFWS
Sequence of Serine/threonine-protein kinase pim-1 (P11309 whole entry): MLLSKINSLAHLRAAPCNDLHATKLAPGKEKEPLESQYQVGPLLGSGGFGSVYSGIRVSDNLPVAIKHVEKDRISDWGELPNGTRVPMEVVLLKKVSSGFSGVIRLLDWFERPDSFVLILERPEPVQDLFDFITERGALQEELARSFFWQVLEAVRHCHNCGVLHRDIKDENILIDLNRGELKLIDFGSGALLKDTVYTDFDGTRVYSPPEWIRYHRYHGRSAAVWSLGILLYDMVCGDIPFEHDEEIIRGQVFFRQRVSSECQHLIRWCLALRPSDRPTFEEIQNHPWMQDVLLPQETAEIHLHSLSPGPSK
Sequence of Aurora kinase B (Q96GD4 whole entry): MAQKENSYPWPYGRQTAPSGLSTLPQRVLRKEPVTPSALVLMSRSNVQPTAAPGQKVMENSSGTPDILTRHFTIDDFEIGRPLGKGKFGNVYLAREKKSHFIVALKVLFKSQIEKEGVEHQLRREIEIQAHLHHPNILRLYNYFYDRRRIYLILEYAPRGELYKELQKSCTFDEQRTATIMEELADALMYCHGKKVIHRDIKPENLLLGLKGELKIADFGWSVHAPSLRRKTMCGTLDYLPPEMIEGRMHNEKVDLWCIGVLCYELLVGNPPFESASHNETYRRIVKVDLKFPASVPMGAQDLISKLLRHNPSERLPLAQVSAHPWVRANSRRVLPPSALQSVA
Sequence of Serine/threonine-protein kinase pim-2 (Q9P1W9 whole entry): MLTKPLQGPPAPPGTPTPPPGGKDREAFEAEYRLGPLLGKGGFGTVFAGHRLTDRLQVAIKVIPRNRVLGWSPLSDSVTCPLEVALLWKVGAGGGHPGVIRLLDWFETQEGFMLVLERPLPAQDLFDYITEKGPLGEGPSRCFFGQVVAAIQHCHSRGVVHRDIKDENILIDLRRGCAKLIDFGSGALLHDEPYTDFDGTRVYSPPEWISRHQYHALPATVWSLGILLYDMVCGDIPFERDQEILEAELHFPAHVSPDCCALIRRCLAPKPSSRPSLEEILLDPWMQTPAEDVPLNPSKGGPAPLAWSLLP
Sequence of Serine/threonine-protein kinase SIK3 (Q9Y2K2 whole entry): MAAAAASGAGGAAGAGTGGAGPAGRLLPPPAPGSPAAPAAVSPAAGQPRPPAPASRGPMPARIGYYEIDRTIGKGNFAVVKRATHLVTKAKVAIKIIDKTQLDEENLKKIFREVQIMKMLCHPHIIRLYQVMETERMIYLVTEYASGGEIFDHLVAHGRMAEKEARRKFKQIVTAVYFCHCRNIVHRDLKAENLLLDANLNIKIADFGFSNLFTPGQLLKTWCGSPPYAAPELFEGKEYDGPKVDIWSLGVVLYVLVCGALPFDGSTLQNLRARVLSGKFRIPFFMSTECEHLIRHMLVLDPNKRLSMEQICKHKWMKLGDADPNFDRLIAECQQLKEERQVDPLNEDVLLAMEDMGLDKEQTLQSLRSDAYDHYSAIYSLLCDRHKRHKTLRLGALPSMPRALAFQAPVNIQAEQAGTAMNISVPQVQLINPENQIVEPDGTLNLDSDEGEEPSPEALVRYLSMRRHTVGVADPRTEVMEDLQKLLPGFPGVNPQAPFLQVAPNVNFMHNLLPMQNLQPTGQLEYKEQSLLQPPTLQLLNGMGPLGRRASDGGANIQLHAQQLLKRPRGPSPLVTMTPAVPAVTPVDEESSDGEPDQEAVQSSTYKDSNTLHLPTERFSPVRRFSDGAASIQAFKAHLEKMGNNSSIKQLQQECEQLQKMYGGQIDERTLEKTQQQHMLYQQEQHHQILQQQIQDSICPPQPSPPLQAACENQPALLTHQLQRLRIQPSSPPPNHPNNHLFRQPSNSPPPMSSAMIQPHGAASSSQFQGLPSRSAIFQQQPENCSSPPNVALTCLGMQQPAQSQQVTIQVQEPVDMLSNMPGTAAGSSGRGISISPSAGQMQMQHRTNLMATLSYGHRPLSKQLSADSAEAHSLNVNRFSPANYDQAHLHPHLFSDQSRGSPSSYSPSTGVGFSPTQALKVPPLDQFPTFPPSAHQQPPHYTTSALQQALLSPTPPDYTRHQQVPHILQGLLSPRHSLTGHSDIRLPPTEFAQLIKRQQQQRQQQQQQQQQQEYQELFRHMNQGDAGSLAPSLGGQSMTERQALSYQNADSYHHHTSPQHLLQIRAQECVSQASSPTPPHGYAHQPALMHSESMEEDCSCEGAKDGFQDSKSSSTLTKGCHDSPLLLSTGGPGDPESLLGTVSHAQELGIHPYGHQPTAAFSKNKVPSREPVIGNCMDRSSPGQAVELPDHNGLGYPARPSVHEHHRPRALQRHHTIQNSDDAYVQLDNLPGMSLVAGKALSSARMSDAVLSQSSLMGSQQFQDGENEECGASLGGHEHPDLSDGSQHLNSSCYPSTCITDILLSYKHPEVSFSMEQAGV
Sequence of Mitogen-activated protein kinase kinase kinase 11 (Q16584 whole entry): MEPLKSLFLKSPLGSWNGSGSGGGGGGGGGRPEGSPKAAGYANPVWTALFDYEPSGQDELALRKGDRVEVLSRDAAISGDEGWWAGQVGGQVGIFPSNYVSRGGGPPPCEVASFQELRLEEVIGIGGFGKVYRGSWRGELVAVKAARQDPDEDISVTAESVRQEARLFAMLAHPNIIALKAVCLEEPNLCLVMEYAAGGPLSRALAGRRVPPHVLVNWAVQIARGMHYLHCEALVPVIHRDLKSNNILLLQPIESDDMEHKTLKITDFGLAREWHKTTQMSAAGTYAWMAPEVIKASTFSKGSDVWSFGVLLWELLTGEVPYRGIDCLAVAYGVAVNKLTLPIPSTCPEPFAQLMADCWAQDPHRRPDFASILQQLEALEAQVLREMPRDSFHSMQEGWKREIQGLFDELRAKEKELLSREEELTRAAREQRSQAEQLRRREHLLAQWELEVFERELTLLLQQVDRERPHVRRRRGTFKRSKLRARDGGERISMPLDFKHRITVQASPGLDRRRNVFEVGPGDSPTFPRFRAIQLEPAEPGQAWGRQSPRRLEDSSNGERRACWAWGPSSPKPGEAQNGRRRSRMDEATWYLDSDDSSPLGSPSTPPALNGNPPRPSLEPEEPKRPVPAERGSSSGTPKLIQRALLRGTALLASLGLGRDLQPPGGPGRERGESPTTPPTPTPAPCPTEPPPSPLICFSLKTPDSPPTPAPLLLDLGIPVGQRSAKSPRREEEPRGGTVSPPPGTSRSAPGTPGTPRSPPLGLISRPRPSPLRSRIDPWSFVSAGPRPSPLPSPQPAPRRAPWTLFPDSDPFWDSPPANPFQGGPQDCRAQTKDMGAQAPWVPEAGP
Sequence of Receptor-interacting serine/threonine-protein kinase 2 (O43353 whole entry): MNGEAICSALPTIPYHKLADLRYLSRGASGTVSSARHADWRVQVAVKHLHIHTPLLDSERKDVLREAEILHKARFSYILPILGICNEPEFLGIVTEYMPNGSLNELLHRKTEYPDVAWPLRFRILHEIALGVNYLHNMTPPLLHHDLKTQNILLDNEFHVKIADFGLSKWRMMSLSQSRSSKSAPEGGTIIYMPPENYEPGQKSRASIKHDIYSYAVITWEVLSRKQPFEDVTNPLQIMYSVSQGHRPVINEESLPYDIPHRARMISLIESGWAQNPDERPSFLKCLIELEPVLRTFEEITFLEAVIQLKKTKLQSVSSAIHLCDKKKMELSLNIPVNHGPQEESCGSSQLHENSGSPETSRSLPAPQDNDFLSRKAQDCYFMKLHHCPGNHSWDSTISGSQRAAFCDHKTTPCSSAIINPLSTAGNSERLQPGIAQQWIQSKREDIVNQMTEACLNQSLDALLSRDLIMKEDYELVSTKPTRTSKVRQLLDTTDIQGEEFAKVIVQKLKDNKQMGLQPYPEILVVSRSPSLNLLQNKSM

With `Cc1cc(=O)c2c(O)cc(O)c([C@@H]3CCN(C)C[C@@H]3O)c2o1`, the midpoint of inhibition in test [1], the IC50, lay at 0.3 µM.
On to `COc1cc(Br)cc2[nH]cc(-c3cnc(-c4cc(Br)c[nH]4)o3)c12`, for which the IC50 in [2], in test [3], in [4], in [5], in test [6] and in test [7] was greater than 10 µM in each case. The IC50 in [8] is greater than 10 µM; in [9], greater than 10 µM; in test [10], greater than 10 µM; in [11], greater than 10 µM; in test [12], 43 µM; in test [13], greater than 10 µM. Besides, the IC50 in test [14] is greater than 10 µM; in test [15], greater than 10 µM; in test [16] it was greater than 10 µM; in [17] it was 36 µM; in test [18], 22 µM; in test [19], 23 µM. Besides, the IC50 is greater than 10 µM in test [20], greater than 10 µM in test [21] and 7.8 µM in test [22].
As to `COc1cc(Br)cc2[nH]c(I)c(-c3cnc(-c4ccc[nH]4)o3)c12`, the IC50 in test [2], in test [3], in test [4], in test [5], in test [6] and in test [7] was greater than 10 µM in each case. The IC50 in test [8] is greater than 10 µM; in [9] it was greater than 10 µM; in [10], greater than 10 µM; in test [11] it was greater than 10 µM; in [12], 18 µM; in test [13], greater than 10 µM. Moreover, the IC50 in test [14] was greater than 10 µM; in [15], greater than 10 µM; in test [16], 40 µM; in test [17], 18 µM; in test [18], 21 µM; in test [19] it was 19 µM. The values for the IC50 in test [20], in test [21] and in test [22] were greater than 10 µM, greater than 10 µM and 31 µM, respectively.
